Non-standard residues stand in square brackets, D forms with d. Residues, ends and D or L forms follow the SMILES beside them. βAla = NCCC(=O)O; Sar = CNCC(=O)O
molecular target: T1, furin (Homo sapiens, UniProt P09958); assay: biochemical; details: furin, Pyr-RTKR-AMC substrate; alanine scanning mutagenesis of the H5 furin cleavage sequence (Table 2); read-out: Ki
T1 construct: made in house; host or cells: Drosophila S2 cells (Invitrogen expression system)
T1 sequence (P09958 108-794 limits assumed): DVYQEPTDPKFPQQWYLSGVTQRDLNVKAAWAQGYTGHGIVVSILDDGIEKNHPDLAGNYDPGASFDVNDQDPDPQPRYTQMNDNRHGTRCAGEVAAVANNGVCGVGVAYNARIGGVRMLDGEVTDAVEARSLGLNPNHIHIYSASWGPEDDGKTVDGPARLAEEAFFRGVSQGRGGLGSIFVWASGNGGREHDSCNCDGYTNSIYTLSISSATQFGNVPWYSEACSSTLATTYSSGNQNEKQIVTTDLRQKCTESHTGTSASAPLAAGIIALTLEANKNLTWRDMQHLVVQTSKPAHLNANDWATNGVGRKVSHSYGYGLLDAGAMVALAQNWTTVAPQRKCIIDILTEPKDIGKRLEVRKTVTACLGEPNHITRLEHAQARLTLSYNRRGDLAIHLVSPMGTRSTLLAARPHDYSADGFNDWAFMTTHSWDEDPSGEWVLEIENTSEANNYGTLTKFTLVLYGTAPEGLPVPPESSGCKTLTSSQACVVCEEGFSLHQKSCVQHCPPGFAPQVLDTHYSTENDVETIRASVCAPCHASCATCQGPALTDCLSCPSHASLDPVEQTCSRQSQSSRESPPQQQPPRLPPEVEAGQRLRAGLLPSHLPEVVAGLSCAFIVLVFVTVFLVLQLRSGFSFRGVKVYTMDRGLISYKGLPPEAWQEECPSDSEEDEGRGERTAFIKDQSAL

SMILES	Ki [nM]
C[C@H](NC(=O)[C@H](C)NC(=O)[C@H](CCC(=O)O)NC(=O)[C@H](CCCNC(=N)N)NC(=O)[C@@H]1CCCN1C(=O)[C@@H](N)[C@@H](C)O)C(=O)N[C@@H](C)C(=O)N[C@@H](CCCCN)C(=O)N[C@@H](CCCCN)C(=O)N[C@@H](CCCNC(=N)N)C(N)=O (H-TPREAAAKKR-NH2)	> 100
C[C@H](NC(=O)[C@@H]1CCCN1C(=O)[C@@H](N)[C@@H](C)O)C(=O)N[C@@H](CCC(=O)O)C(=O)N[C@@H](CCCNC(=N)N)C(=O)N[C@@H](CCCNC(=N)N)C(=O)N[C@@H](CCCNC(=N)N)C(=O)N[C@@H](CCCCN)C(=O)N[C@@H](CCCCN)C(=O)N[C@@H](CCCNC(=N)N)C(=O)N(C)CC(N)=O (H-TPAERRRKKR[Sar]-NH2)	> 100
CC(C)[C@H](NC(=O)[C@H](C)NC(=O)[C@H](CCCCN)NC(=O)[C@H](CCCCN)NC(=O)[C@H](CCCNC(=N)N)NC(=O)[C@H](CCCNC(=N)N)NC(=O)[C@H](CCCNC(=N)N)NC(=O)[C@H](CCC(=O)O)NC(=O)[C@H](CCCNC(=N)N)NC(=O)[C@@H]1CCCN1C(=O)[C@@H](N)[C@@H](C)O)C(N)=O (H-TPRERRRKKAV-NH2)	> 100
CC(C)[C@H](NC(=O)[C@H](CCCNC(=N)N)NC(=O)[C@H](CCCCN)NC(=O)[C@H](CCCCN)NC(=O)[C@H](C)NC(=O)[C@H](C)NC(=O)[C@H](C)NC(=O)[C@H](CCC(=O)O)NC(=O)[C@H](CCCNC(=N)N)NC(=O)[C@@H]1CCCN1C(=O)[C@@H](N)[C@@H](C)O)C(N)=O (H-TPREAAAKKRV-NH2)	> 100
CC(C)[C@H](NC(=O)[C@H](CCCNC(=N)N)NC(=O)[C@H](CCCCN)NC(=O)[C@H](CCCCN)NC(=O)[C@H](C)NC(=O)[C@H](CCCNC(=N)N)NC(=O)[C@H](CCCNC(=N)N)NC(=O)[C@H](CCC(=O)O)NC(=O)[C@H](CCCNC(=N)N)NC(=O)[C@@H]1CCCN1C(=O)[C@@H](N)[C@@H](C)O)C(N)=O (H-TPRERRAKKRV-NH2)	> 100
C[C@H](NC(=O)[C@H](C)NC(=O)[C@H](CCCNC(=N)N)NC(=O)[C@H](CCCNC(=N)N)NC(=O)[C@H](CCCNC(=N)N)NC(=O)[C@H](CCC(=O)O)NC(=O)[C@H](CCCNC(=N)N)NC(=O)[C@@H]1CCCN1C(=O)[C@@H](N)[C@@H](C)O)C(=O)N[C@@H](CCCNC(=N)N)C(N)=O	> 100
C[C@H](NC(=O)[C@H](C)NC(=O)[C@H](CCC(=O)O)NC(=O)[C@H](CCCNC(=N)N)NC(=O)[C@@H]1CCCN1C(=O)[C@@H](N)[C@@H](C)O)C(=O)N[C@@H](CCCNC(=N)N)C(=O)N[C@@H](CCCCN)C(=O)N[C@@H](CCCCN)C(=O)N[C@@H](CCCNC(=N)N)C(=O)NCC(N)=O (H-TPREAARKKRG-NH2)	> 100
C[C@H](NC(=O)[C@H](CCCNC(=N)N)NC(=O)[C@H](CCCNC(=N)N)NC(=O)[C@H](CCCNC(=N)N)NC(=O)[C@H](CCC(=O)O)NC(=O)[C@H](CCCNC(=N)N)NC(=O)[C@@H]1CCCN1C(=O)[C@@H](N)[C@@H](C)O)C(=O)N[C@@H](CCCCN)C(=O)N[C@@H](CCCNC(=N)N)C(N)=O (H-TPRERRRAKR-NH2)	> 100
C[C@@H](O)[C@H](N)C(=O)N1CCC[C@H]1C(=O)N[C@@H](CCCNC(=N)N)C(=O)N[C@@H](CCC(=O)O)C(=O)N[C@@H](CCCNC(=N)N)C(=O)N[C@@H](CCCNC(=N)N)C(=O)N[C@@H](CCCNC(=N)N)C(=O)N[C@@H](CCCCN)C(=O)N[C@@H](CCCCN)C(=O)N[C@@H](CCCNC(=N)N)C(N)=O (H-TPRERRRKKR-NH2)	> 100

same assay, conditions: furin, Pyr-RTKR-AMC substrate; optimization of the inhibitory peptides (Table 3); read-out: Ki

SMILES	Ki [nM]
C[C@@H](O)[C@H](N)C(=O)N1CCC[C@H]1C(=O)N[C@@H](CCC(N)=O)C(=O)N[C@@H](CCCNC(=N)N)C(=O)N[C@H](CCCNC(=N)N)C(=O)N[C@@H](CCCNC(=N)N)C(=O)N[C@@H](CCCNC(=N)N)C(=O)N[C@@H](CCCNC(=N)N)C(=O)N[C@@H](CCCCN)C(=O)N[C@@H](CCCCN)C(=O)N[C@@H](CCCNC(=N)N)C(=O)NCC(N)=O [TPQRrRRRKKRG]	> 100
C[C@@H](O)[C@H](N)C(=O)N1CCC[C@H]1C(=O)N[C@@H](CCC(N)=O)C(=O)N[C@@H](CCCNC(=N)N)C(=O)N[C@@H](CS)C(=O)N[C@@H](CCCNC(=N)N)C(=O)N[C@@H](CCCNC(=N)N)C(=O)N[C@@H](CCCNC(=N)N)C(=O)N[C@@H](CCCCN)C(=O)N[C@@H](CCCCN)C(=O)N[C@@H](CCCNC(=N)N)C(=O)NCC(N)=O	> 100
C[C@H](NC(=O)[C@H](CCCNC(=N)N)NC(=O)[C@H](CCC(N)=O)NC(=O)[C@@H]1CCCN1C(=O)[C@@H](N)[C@@H](C)O)C(=O)N[C@@H](CCCNC(=N)N)C(=O)N[C@@H](CCCNC(=N)N)C(=O)N[C@@H](CCCNC(=N)N)C(=O)N[C@@H](CCCCN)C(=O)N[C@@H](CCCCN)C(=O)N[C@@H](CCCNC(=N)N)C(=O)N1CCC[C@H]1C(N)=O (H-TPQRARRRKKRP-NH2)	> 100
C[C@H](NC(=O)[C@H](CCCNC(=N)N)NC(=O)[C@H](CCC(N)=O)NC(=O)[C@@H]1CCCN1C(=O)[C@@H](N)[C@@H](C)O)C(=O)N[C@@H](CCCNC(=N)N)C(=O)N[C@@H](CCCNC(=N)N)C(=O)N[C@@H](CCCNC(=N)N)C(=O)N[C@@H](CCCCN)C(=O)N[C@@H](CCCCN)C(=O)N[C@@H](CCCNC(=N)N)C(=O)N[C@@H](CCCNC(=N)N)C(N)=O (H-TPQRARRRKKRR-NH2)	> 100
CC(C)[C@H](NC(=O)[C@H](CCCNC(=N)N)NC(=O)[C@H](CCC(N)=O)NC(=O)[C@@H]1CCCN1C(=O)[C@@H](N)[C@@H](C)O)C(=O)N[C@@H](CCCNC(=N)N)C(=O)N[C@@H](CCCNC(=N)N)C(=O)N[C@@H](CCCNC(=N)N)C(=O)N[C@@H](CCCCN)C(=O)N[C@@H](CCCCN)C(=O)N[C@@H](CCCNC(=N)N)C(=O)NCC(N)=O (H-TPQRVRRRKKRG-NH2)	> 100
C[C@H](NC(=O)[C@H](CCCNC(=N)N)NC(=O)[C@H](CCC(N)=O)NC(=O)[C@@H]1CCCN1C(=O)[C@@H](N)[C@@H](C)O)C(=O)N[C@@H](CCCNC(=N)N)C(=O)N[C@@H](CCCNC(=N)N)C(=O)N[C@@H](CCCNC(=N)N)C(=O)N[C@@H](CCCCN)C(=O)N[C@@H](CCCCN)C(=O)N[C@@H](CCCNC(=N)N)C(=O)NCCC(N)=O (H-TPQRARRRKKR[βAla]-NH2)	> 100
CC(C)[C@H](NC(=O)[C@H](CCCNC(=N)N)NC(=O)[C@H](CCCCN)NC(=O)[C@H](CCCCN)NC(=O)[C@H](CCCNC(=N)N)NC(=O)[C@H](CCCNC(=N)N)NC(=O)[C@H](CCCNC(=N)N)NC(=O)[C@H](C)NC(=O)[C@H](CCCNC(=N)N)NC(=O)[C@H](CCC(N)=O)NC(=O)[C@@H]1CCCN1C(=O)[C@@H](N)[C@@H](C)O)C(N)=O (H-TPQRARRRKKRV-NH2)	48
C[C@@H](O)[C@H](N)C(=O)N1CCC[C@H]1C(=O)N[C@@H](CCC(N)=O)C(=O)N[C@@H](CCCNC(=N)N)C(=O)N[C@@H](CC(=O)O)C(=O)N[C@@H](CCCNC(=N)N)C(=O)N[C@@H](CCCNC(=N)N)C(=O)N[C@@H](CCCNC(=N)N)C(=O)N[C@@H](CCCCN)C(=O)N[C@@H](CCCCN)C(=O)N[C@@H](CCCNC(=N)N)C(=O)NCC(N)=O (H-TPQRDRRRKKRG-NH2)	> 100
CC[C@H](C)[C@H](NC(=O)[C@H](CCCNC(=N)N)NC(=O)[C@H](CCC(N)=O)NC(=O)[C@@H]1CCCN1C(=O)[C@@H](N)[C@@H](C)O)C(=O)N[C@@H](CCCNC(=N)N)C(=O)N[C@@H](CCCNC(=N)N)C(=O)N[C@@H](CCCNC(=N)N)C(=O)N[C@@H](CCCCN)C(=O)N[C@@H](CCCCN)C(=O)N[C@@H](CCCNC(=N)N)C(=O)NCC(N)=O (H-TPQRIRRRKKRG-NH2)	> 100

— US8053553B2, “Targeting host proteinases as a therapeutic strategy against viral and bacterial pathogens” (Socpra Sciences Sante Et Humaines, priority 2007, dated 2011)
